In patent US6039931A, “Derivatized DTPA complexes, pharmaceutical agents containing these compounds, their use, and processes for their production” (Schering Aktiengesellschaft, priority 1989, dated 2000):

Assays:
[1] = system: male hairless rat (Lew/Mol), Brown Pearce tumor; test: in vivo NMR imaging (spin echo, 2 tesla) after i.v. administration, rat with Brown Pearce tumor in the thigh; settings: 0.06 mmol/kg i.v.
Text: Spin echo scans were made with the NMR tomograph (CSI 2 T) at 2 tesla (TR time of 400 ms and TE time of 20 ms).

[2] = system: female rats of the strain Lew/Mol; test: in vivo MRI imaging (T1-weighted spin echo, 2 tesla) after i.v. administration, 3 compounds; set-up: species or system rat (Lew/Mol); settings: 0.1 mmol Gd/kg i.v.
Text: The test animals were female rats of the strain Lew/Mol weighing 160-180 g. Prior to imaging, the animals were anesthetized ("Rompun"+"Ketavet") and provided with a catheter in the caudal vein to administer the contrast medium. Imaging took place in an MRI experimental device by General Electric (field strength 2 tesla). First of all, the images (7, 9, 11) were made without contrast medium with a T1 -weighted spin echo sequence (TR=400 msec, TE=20 msec, axial section plane, layer thickness 3 mm). The liver appears in each case with the normal signal intensity; the stomach is […] in tendency than the liver. […] This is due to feed residues, the feed containing manganese in relatively high concentrations (at the time of the test, the animals had been fasting for 6 hours) . Animal 3 had been implanted with an osteogenic sarcoma three weeks previously; this sarcoma was of equal contrast in the blank image and could not be defined. The administration of contrast medium took place via the venous catheter with a dose of 0.1 mmol Gd/kg (concentration of the solutions 0.05 mmol Gd/ml in 0.9% NaCl) for all 3 compounds.

[3] = T1 relaxation (relaxivity) in water and in plasma; type: physicochemical
[4] = system: female rats of the strain Lew/Mol; settings: at this point in time after administration; commercial contrast medium; cited from earlier work

COc1ccc(CC(CN(CCN(CC(=O)[O-])CC(=O)[O-])CC(=O)[O-])N(CC(=O)[O-])CC(=O)[O-])cc1.[Gd+3].[Na+].[Na+] (stereo not drawn) [Example 1(c) disodium salt, Gadolinium Complex of 3,6,9-Triaza-3,6,9-tris(carboxymethyl)-4-(4-methoxybenzyl)undecanedioic Acid]
enhancement in the urinary bladder ([1]; 1 minute after administration): the first enhancement is already apparent in the urinary bladder | increase in contrast in the stomach ([1]; 45 minutes after injection): A strong increase in contrast is visible in the stomach | visualization of the tumor, of the urinary bladder, and of the stomach ([1]; 60 minutes after injection): A good visualization of the tumor (at the level of the reference tube) of the urinary bladder, and of the stomach | contrasting of the renal pelvis ([1]; 60 minutes, further improved 65 minutes after injection in a different layer): Contrasting of the renal pelvis is also striking | contrast enhancement in an axial scan in the zone of the liver ([1]; 180 minutes after injection): the contrast enhancement is likewise clearly recognizable

CCOc1ccc(CC(CN(CCN(CC(=O)[O-])CC(=O)[O-])CC(=O)[O-])N(CC(=O)[O-])CC(=O)[O-])cc1.[Gd+3].[Na+].[Na+] (stereo not drawn) [Example 8(c), Disodium Salt of the Gadolinium Complex of 3,6,9-Triaza-3,6,9-tris(carboxymethyl)-4-(4-ethoxybenzyl)undecanedioic Acid]
enhancement of the stomach, ranking among the 3 compounds [2]: least | enhancement of the liver ([2]; after 90 minutes): A marked enhancement of the liver

O=C([O-])CN(CCN(CC(=O)[O-])CC(Cc1ccc(OCc2ccccc2)cc1)N(CC(=O)[O-])CC(=O)[O-])CC(=O)[O-].[Gd+3].[Na+].[Na+] (stereo not drawn) [Example 10(c), Disodium Salt of the Gadolinium Complex of 3,6,9-Triaza-3,6,9-tris(carboxymethyl)-4-(4-benzyloxybenzyl)undecanedioic Acid]
enhancement of the stomach, ranking among the 3 compounds [2]: most strongly | enhancement of the liver ([2]; after 60 minutes): A marked enhancement of the liver | absorption of the contrast medium by the tumor (implanted osteogenic sarcoma) ([2]; animal 3, 60 minutes): has not absorbed the contrast medium at all, or only to a lesser proportion | visibility of the tumor (implanted osteogenic sarcoma) ([2]; animal 3, 60 minutes): the tumor is now additionally clearly visible

CCCCOc1ccc(CC(CN(CCN(CC(=O)[O-])CC(=O)[O-])CC(=O)[O-])N(CC(=O)[O-])CC(=O)[O-])cc1.[Gd+3].[Na+].[Na+] (stereo not drawn) [Example 9(c), Disodium Salt of the Gadolinium Complex of 3,6,9-Triaza-3,6,9-tris(carboxymethyl)-4-(4-butoxybenzyl)undecanedioic Acid]
enhancement of the liver ([2]; after 60 minutes): A marked enhancement of the liver | T1 relaxation ([3]; in plasma): 14.20 ± 0.98 mmol⁻¹ s⁻¹ | T1 relaxation ([3]; in water): 5.80 ± 0.26 mmol⁻¹ s⁻¹

CNC[C@H](O)[C@@H](O)[C@H](O)[C@H](O)CO.CNC[C@H](O)[C@@H](O)[C@H](O)[C@H](O)CO.O=C([O-])CN(CCN(CC(=O)[O-])CC(=O)O)CCN(CC(=O)[O-])CC(=O)O.[Gd+3] [Magnevist, dimeglumine salt of Gd DTPA [gadolinium(III)complex of diethylenetriaminepentaacetic acid]]
enhancement of the liver (uptake by the hepatocytes), comparison [4]: cannot be observed at this point in time after administration
